The text below walks through data of patent publication EP4567035A1, “NOVEL COMPOUND AS HYPOXIA-INDUCIBLE FACTOR 1(HIF-1) INHIBITOR OR VASCULAR ENDOTHELIAL GROWTH FACTOR (VEGF) INHIBITOR, AND PHARMACEUTICAL COMPOSITION COMPRISING SAME” (Nextgen Bioscience Co., Ltd., priority 2022, dated 2024).

One experiment concerns the target T1, HIF-1α (Homo sapiens, UniProt Q16665).
T1 construct: endogenous in cells; host or cells: ARPE-19 (ATCC CRL-2302)
As to the kind of experiment: Analysis of HIF-1α protein expression (Western blot) in ARPE-19 cells under mixed hypoxic condition. It counts as cell-based. As to conditions: concentration range at which HIF-1α expression is reduced by 50% vs untreated control. Put shortly: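 ARPE-19 cells were pretreated 16 h or 2 h with compound (0.1 nM–10 µM, serum-free DMEM/F12), then held 1 h or 24 h in mixed hypoxia (1% O2 plus CoCl2). HIF-1α was quantified by Western blot against β-actin; the concentration range giving ≥50% reduction vs untreated control was reported.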
(In general: In western blotting, separated proteins are transferred to a membrane and probed.)

A further experiment concerns VEGF. As to the kind of experiment: Evaluation of VEGF protein secretion level (Human VEGF ELISA) in ARPE-19 cell medium under hypoxic conditions. It is filed as cell-based. Put shortly:
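Human ARPE-19 cells were pretreated 2 h with compound (0.1 nM–10 µM, in DMEM/F12 with 1% FBS), then held 24 h in hypoxia (1% O2, 5% CO2). Secreted VEGF in the supernatant was quantified by ELISA (A450). The value is the concentration range giving ≥50% VEGF reduction versus untreated control.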
(ELISA stands for enzyme-linked immunosorbent assay.)

Where [1] appears, read: values marked * in the table, mixed hypoxic condition (1% oxygen + CoCl2) for 24 hours, read-out: IC50 HIF-1α, Hypoxia(24h).
Setting [2] is: ARPE-19 cells, pretreated 2 hours, 24 hours hypoxic conditions, secreted VEGF in medium supernatant by ELISA, concentration range reducing VEGF by 50% vs untreated control, read-out: IC50 VEGF.
The mark [3] stands for this setting: mixed hypoxic condition (1% oxygen + CoCl2) for 1 hour, read-out: IC50 HIF-1α Hypoxia (1 hour).
Setting [4] is: ARPE-19 cells, pretreated 2 hours, 24 hours hypoxic conditions, ELISA, read-out: concentration at which the secreted VEGF protein level was suppressed to less than 50%.
Setting [5] is: Experimental Example 2 (HIF-1α Western blot), read-out: concentration at which the expression level of VEGF was suppressed to less than 50%.

Read-outs that look alike come from different tables or passages of the source.

T1 sequence (Q16665 whole entry): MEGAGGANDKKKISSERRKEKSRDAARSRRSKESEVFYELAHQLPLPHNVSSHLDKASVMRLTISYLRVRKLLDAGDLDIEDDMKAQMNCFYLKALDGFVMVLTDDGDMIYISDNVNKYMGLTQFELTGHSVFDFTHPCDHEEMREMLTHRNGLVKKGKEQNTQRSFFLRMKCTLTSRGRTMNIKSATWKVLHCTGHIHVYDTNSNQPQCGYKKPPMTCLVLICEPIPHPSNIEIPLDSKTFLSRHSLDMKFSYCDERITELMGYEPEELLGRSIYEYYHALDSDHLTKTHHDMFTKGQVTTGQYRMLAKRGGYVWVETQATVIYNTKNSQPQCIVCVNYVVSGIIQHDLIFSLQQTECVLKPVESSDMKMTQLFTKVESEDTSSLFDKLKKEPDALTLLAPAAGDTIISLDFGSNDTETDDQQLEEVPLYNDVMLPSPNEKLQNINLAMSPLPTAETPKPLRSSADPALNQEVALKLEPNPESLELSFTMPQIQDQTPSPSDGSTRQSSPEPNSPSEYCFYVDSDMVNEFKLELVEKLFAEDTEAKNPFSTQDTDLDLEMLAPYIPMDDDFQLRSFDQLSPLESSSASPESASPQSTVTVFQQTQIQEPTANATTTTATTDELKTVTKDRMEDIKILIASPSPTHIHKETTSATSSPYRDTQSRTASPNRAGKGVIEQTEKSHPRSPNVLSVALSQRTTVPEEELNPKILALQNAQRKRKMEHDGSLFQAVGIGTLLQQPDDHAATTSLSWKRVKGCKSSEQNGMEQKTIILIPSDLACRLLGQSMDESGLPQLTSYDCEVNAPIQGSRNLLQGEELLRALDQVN

Regarding `CS(=O)(=O)c1cc(Br)ccc1-n1cc(-c2cc(F)cc(CNC(=O)c3ncnc4nc(C5CCCC5)[nH]c34)c2)cn1` [Example 59, N-(3-(1-(4-bromo-2-(methylsulfonyl)phenyl)-1H-pyrazol-4-yl)-5-fluorobenzyl)-8-cyclopentyl-7H-purine-6-carboxamide], the DC50 on HIF-1α (setting [1]) lay in the range of 100 to 1000 nM. The IC50 in the experiment on VEGF (setting [2]) is 100 to 1000 nM.
For `O=C(NCc1cc(F)cc(-c2cnn(-c3ccc(F)c(F)c3)c2)c1)c1ncnc2nc(C3CCCC3)[nH]c12` [Example 60, 8-Cyclopentyl-N-(3-(1-(3,4-difluorophenyl)-1H-pyrazol-4-yl)-5-fluorobenzyl)-7H-purine-6-carboxamide], the DC50 at HIF-1α (setting [1]) is less than 100 nM. In the experiment with VEGF (setting [2]), the IC50 lay within 100 to 1000 nM.
As to `CN1CCC[C@H]1c1nc2ncnc(C(=O)NCc3cc(F)cc(-c4cnn(C)c4)c3)c2[nH]1` [Example 63, (S)-N-(3-fluoro-5-(1-methyl-1H-pyrazol-4-yl)benzyl)-8-(1-methylpyrrolidin-2-yl)-7H-purine-6-carboxamide], the DC50 at HIF-1α (setting [3]) lay in the range of 100 to 1000 nM. In addition, the IC50 in the experiment with VEGF (setting [2]) lay in the range of 1000 to 10000 nM.
In the case of `CN1CCC[C@@H]1c1nc2ncnc(C(=O)NCc3cc(F)cc(-c4cnn(C)c4)c3)c2[nH]1` [Example 66, (R)-N-(3-fluoro-5-(1-methyl-1H-pyrazol-4-yl)benzyl)-8-(1-methylpyrrolidin-2-yl)-7H-purine-6-carboxamide], the DC50 on HIF-1α (setting [3]) is less than 100 nM. The IC50 with VEGF (setting [2]) lay in the range of 1000 to 10000 nM.
As to `Cn1cc(-c2cc(F)cc(CNC(=O)c3ncnc4nc(C5CC6C(C5)C6(F)F)[nH]c34)c2)cn1` (stereo not shown) [Example 77, 8-(6,6-Difluorobicyclo[3.1.0]hexan-3-yl)-N-(3-fluoro-5-(1-methyl-1H-pyrazol-4-yl)benzyl)-7H-purine-6-carboxamide], at HIF-1α (setting [3]), the DC50 lay within 100 to 1000 nM. The IC50 in the experiment on VEGF (setting [2]) was 1000 to 10000 nM.
Regarding `Cn1cc(-c2cc(F)cc(CNC(=O)c3ncnc4nc(C5CC6CC6C5)[nH]c34)c2)cn1` (stereo not shown) [Example 78, 8-(Bicyclo[3.1.0]hexan-3-yl)-N-(3-fluoro-5-(1-methyl-1H-pyrazol-4-yl)benzyl)-7H-purine-6-carboxamide], the DC50 at HIF-1α (setting [1]) was less than 100 nM. Besides, the IC50 with VEGF (setting [2]) is 100 to 1000 nM.
On the same counts, the results for `O=C(NCc1cc(F)cc(-c2cnn(-c3ccc(F)cc3)c2)c1)c1ncnc2nc(C3CCC(F)(F)C3)[nH]c12` (stereo not shown) [Example 80, 8-(3,3-Difluorocyclopentyl)-N-(3-fluoro-5-(1-(4-fluorophenyl)-1H-pyrazol-4-yl)benzyl)-7H-purine-6-carboxamide] are less than 100 nM and less than 100 nM.
On the same counts, the results for `O=C(NCc1cc(F)cc(-c2cnn(-c3cccc(F)c3)c2)c1)c1ncnc2nc(C3CCC(F)(F)C3)[nH]c12` (stereo not shown) [Example 81, 8-(3,3-Difluorocyclopentyl)-N-(3-fluoro-5-(1-(3-fluorophenyl)-1H-pyrazol-4-yl)benzyl)-7H-purine-6-carboxamide] are less than 100 nM and 100 to 1000 nM.
`O=C(NCc1cc(F)cc(-c2cnn(-c3ccc(F)nc3)c2)c1)c1ncnc2nc(C3CCC(F)(F)C3)[nH]c12` (stereo not shown) [Example 82, 8-(3,3-Difluorocyclopentyl)-N-(3-fluoro-5-(1-(6-fluoropyridin-3-yl)-1H-pyrazol-4-yl)benzyl)-7H-purine-6-carboxamide]: the DC50 on HIF-1α (setting [1]) was less than 100 nM. The IC50 in the experiment with VEGF (setting [4]), with VEGF (setting [2]) and in the experiment with VEGF (setting [5]) was less than 100 nM in each case.
Regarding `O=C(NCc1cc(F)cc(-c2cnn(-c3cccnc3)c2)c1)c1ncnc2nc(C3CCC(F)(F)C3)[nH]c12` (stereo not shown) [Example 83, 8-(3,3-Difluorocyclopentyl)-N-(3-fluoro-5-(1-(pyridin-3-yl)-1H-pyrazol-4-yl)benzyl)-7H-purine-6-carboxamide], at HIF-1α (setting [1]), the DC50 is less than 100 nM. The IC50 in the experiment on VEGF (setting [4]), with VEGF (setting [2]) and with VEGF (setting [5]) was less than 100 nM throughout.
Turning to `O=C(NCc1cc(F)cc(-c2cnn(-c3ccc(F)cc3)c2)c1)c1ncnc2nc([C@H]3CCCO3)[nH]c12` [Example 85, (R)-N-(3-fluoro-5-(1-(4-fluorophenyl)-1H-pyrazol-4-yl)benzyl)-8-(tetrahydrofuran-2-yl)-7H-purine-6-carboxamide], the DC50 on HIF-1α (setting [1]) is less than 100 nM. Also, the IC50 in the experiment on VEGF (setting [2]) is 1000 to 10000 nM.
For `O=C1CC[C@@H](c2nc3ncnc(C(=O)NCc4cc(F)cc(-c5cnn(-c6ccc(F)cc6)c5)c4)c3[nH]2)C1` [Example 86, (R)-N-(3-fluoro-5-(1-(4-fluorophenyl)-1H-pyrazol-4-yl)benzyl)-8-(3-oxocyclopentyl)-7H-purine-6-carboxamide], on HIF-1α (setting [1]), the DC50 fell in the range of 100 to 1000 nM. Also, the IC50 in the experiment on VEGF (setting [2]) was 100 to 1000 nM.
For the compound `O=C(NCc1cc(F)cc(-c2cnn(-c3ccc(F)c(Cl)c3)c2)c1)c1ncnc2nc(C3CCCC3)[nH]c12` [Example 87, N-(3-(1-(3-chloro-4-fluorophenyl)-1H-pyrazol-4-yl)-5-fluorobenzyl)-8-cyclopentyl-7H-purine-6-carboxamide], on HIF-1α (setting [1]), the DC50 was less than 100 nM. Further, the IC50 in the experiment on VEGF (setting [2]) was in the range of 100 to 1000 nM.
As for `O=C1CC[C@H](c2nc3ncnc(C(=O)NCc4cc(F)cc(-c5cnn(-c6ccc(F)cc6)c5)c4)c3[nH]2)C1` [Example 88, (S)-N-(3-fluoro-5-(1-(4-fluorophenyl)-1H-pyrazol-4-yl)benzyl)-8-(3-oxocyclopentyl)-7H-purine-6-carboxamide], on HIF-1α (setting [1]), the DC50 lay in the range of 100 to 1000 nM. Moreover, the IC50 in the experiment with VEGF (setting [2]) lay within 100 to 1000 nM.
For `O=C(NCc1cc(F)cc(-c2cnn(-c3ccc(F)cc3)c2)c1)c1ncnc2nc(C3CC(F)(F)C3)[nH]c12` [Example 92, 8-(3,3-Difluorocyclobutyl)-N-(3-fluoro-5-(1-(4-fluorophenyl)-1H-pyrazol-4-yl)benzyl)-7H-purine-6-carboxamide], the DC50 at HIF-1α (setting [1]) is 100 to 1000 nM. The IC50 with VEGF (setting [2]) lay in the range of 100 to 1000 nM.
Turning to `O=C(NCc1cc(F)cc(-c2cnn(-c3ccc(F)cc3)c2)c1)c1nccc2nc(C3CCCC3)[nH]c12` [Example 93, 2-Cyclopentyl-N-(3-fluoro-5-(1-(4-fluorophenyl)-1H-pyrazol-4-yl)benzyl)-3H-imidazo[4,5-c]pyridine-4-carboxamide], the DC50 on HIF-1α (setting [1]) is less than 100 nM. For the same compound, in the experiment with VEGF (setting [2]), the IC50 lay within 100 to 1000 nM.
On the same counts, the results for `O=C(NCc1cccc(-c2cnn(-c3ccc(F)cc3)c2)c1F)c1ncnc2nc(C3CCCC3)[nH]c12` [Example 95, 8-Cyclopentyl-N-(2-fluoro-3-(1-(4-fluorophenyl)-1H-pyrazol-4-yl)benzyl)-7H-purine-6-carboxamide] are 100 to 1000 nM and 100 to 1000 nM.
As to `CC1(C)CC(c2nc3ncnc(C(=O)NCc4cc(F)cc(-c5cnn(-c6ccc(F)cc6)c5)c4)c3[nH]2)C1` [Example 97, 8-(3,3-Dimethylcyclobutyl)-N-(3-fluoro-5-(1-(4-fluorophenyl)-1H-pyrazol-4-yl)benzyl)-7H-purine-6-carboxamide], on HIF-1α (setting [1]), the DC50 lay in the range of 100 to 1000 nM. Also, the IC50 in the experiment with VEGF (setting [2]) was 100 to 1000 nM.
On to `O=C(NCc1cc(F)cc(-c2cnn(-c3ccc(F)cc3)c2)c1)c1ncnc2nc(C3CC4(C3)CC(F)(F)C4)[nH]c12` [Example 98, 8-(6,6-Difluorospiro[3.3]heptan-2-yl)-N-(3-fluoro-5-(1-(4-fluorophenyl)-1H-pyrazol-4-yl)benzyl)-7H-purine-6-carboxamide], for which the DC50 on HIF-1α (setting [1]) lay in the range of 1000 to 10000 nM. Also, the IC50 with VEGF (setting [2]) is more than 10000 nM.
On the same counts, the results for `O=C(NCc1cc(F)cc(-c2cnn(-c3ccc(F)cc3)c2)c1)c1ncnc2nc(C34CC(C3)C4)[nH]c12` [Example 99, 8-(Bicyclo[1.1.1]pentan-1-yl)-N-(3-fluoro-5-(1-(4-fluorophenyl)-1H-pyrazol-4-yl)benzyl)-7H-purine-6-carboxamide] are 1000 to 10000 nM and more than 10000 nM.
`O=C(NCc1cc(F)cc(-c2cnn(-c3ccc(F)cc3)c2)c1)c1ncnc2nc(C3CC4(CCC4)C3)[nH]c12` [Example 100, N-(3-fluoro-5-(1-(4-fluorophenyl)-1H-pyrazol-4-yl)benzyl)-8-(spiro[3.3]heptan-2-yl)-7H-purine-6-carboxamide]: on HIF-1α (setting [1]), the DC50 lay in the range of 1000 to 10000 nM. In the experiment with VEGF (setting [2]), the IC50 was 1000 to 10000 nM.
`O=C(NCc1cc(F)cc(-c2cnn(-c3ccc(F)cc3)c2)c1)c1ncnc2nc(C34CC(F)(C3)C4)[nH]c12` [Example 101, N-(3-fluoro-5-(1-(4-fluorophenyl)-1H-pyrazol-4-yl)benzyl)-8-(3-fluorobicyclo[1.1.1]pentan-1-yl)-7H-purine-6-carboxamide]: on HIF-1α (setting [1]), the DC50 lay within 100 to 1000 nM. The IC50 in the experiment on VEGF (setting [2]) lay in the range of 1000 to 10000 nM.
For the compound `O=C(NCc1cc(Cl)cc(-c2cnn(-c3ccc(F)cc3)c2)c1)c1ncnc2nc(C3CCCC3)[nH]c12` [Example 104, N-(3-chloro-5-(1-(4-fluorophenyl)-1H-pyrazol-4-yl)benzyl)-8-cyclopentyl-7H-purine-6-carboxamide], the DC50 on HIF-1α (setting [1]) was less than 100 nM. For the same compound, the IC50 in the experiment on VEGF (setting [2]) lay within 100 to 1000 nM.
Turning to `O=C(Nc1cc(F)cc(-c2cnn(-c3ccc(F)cc3)c2)c1)c1ncnc2nc(C3CCCC3)[nH]c12` [Example 105, 8-Cyclopentyl-N-(3-fluoro-5-(1-(4-fluorophenyl)-1H-pyrazol-4-yl)phenyl)-7H-purine-6-carboxamide], at HIF-1α (setting [1]), the DC50 was more than 10000 nM. In the experiment with VEGF (setting [2]), the IC50 was more than 10000 nM.
